Measured values: patent US20050101673A1, “Use of orally available prostacyclin derivatives for the production of a pharmaceutical agent for treating diseases that are associated with bone marrow edemas” (Schering AG, priority 2002, published 2005)

Key:
osteonecrosis = details: five-day intravenous infusion; cited from earlier work
[1] = system: patients with osteonecrosis or osteoarthritis of the knee; assay: Random, double-blind comparison study of oral iloprost versus Tramadol; assay type: in vivo, human
Description: To confirm the action of oral iloprost on the bone marrow edema and the pain, a random, double-blind comparison study was performed on the opiate Tramadol® in 41 patients with osteonecrosis or osteoarthritis of the knee in the period from March 2001 to November 2002 according to the GCP guidelines.
Patients of both sexes with resting pain because of an osteonecrosis or osteoarthritis were included in the study if the following criteria were met: • Age between 19 and 60 years, • Bone marrow edema found by means of MRT according to specified criteria.
The treatment was carried out either with iloprost capsules or with outwardly indistinguishable Tramadol capsules that were packaged and characterized according to valid GLP rules. Each capsule contained either 50 μg of iloprost or 50 mg of Tramadol®.
During the first three days of treatment, the study medication was administered in a dosage of 3×1 capsules during the day, which starting on day 4 could be increased individually to increase the success of the therapy (alleviation of pain) up to a maximum dose of 3×2 capsules during the day. In the case of poor tolerance, the dosage could always be reduced to a minimum dose of 2×1 capsules during the day.
The treatment period was one month, followed by a follow-up observation period of two months during which no treatment was given. Previously administered pain-relieving medications should be discontinued before the beginning of the study.
The clinical action of the treatment was determined based on the following parameters: • Evaluation of the intensity of the resting pain and the activity-related pain by the patient based on a 100 mm scale, whereby 0 means “no pain,” and 100 means “intolerable pain.” • Evaluation of the functional condition of the knee by means of Larson scores. • Evaluation of the bone marrow edema by means of MRT.

[2] = system: patients with painful bone marrow edema; assay: 28-day treatment of patients with painful bone marrow edema (summary statements); assay type: in vivo, human; details: 28-day oral treatment; for pain and articulation: follow-up two months after end of treatment
Description: Treatment with orally available prostacyclin derivatives, especially with cyclodextrin clathrates of the prostacyclin derivatives of formula I, thus represents a novel therapy that not only suppresses the symptoms, i.e., the pain, but combats the causes of osteonecrosis and osteoarthritis and for the first time can also be clinical, studied independently.
The β-cyclodextrin clathrate of iloprost, (5- {(1S,5S,6R,7R)-7-hydroxy-6-[(E)-(3R,4RS)-3-hydroxy-4-methyl-oct-1-en-6-inyl]-bicyclo[3.3.0]octane-3-ylidene}pentanoic acid)-β-cyclodextrin clathrate, is especially suitable.

[3] = after 28 days of treatment, persists 2 months without therapy
[4] = listed as iloprost β-cyclodextrin clathrate
[5] = listed as β-cyclodextrin clathrate of iloprost

CC#CCC(C)[C@H](O)/C=C/[C@@H]1[C@H]2C/C(=C/CCCC(=O)O)C[C@H]2C[C@H]1O.NC(CO)(CO)CO (some centres unmarked) [Ilomedin®, iloprost-trometamol]
pain in osteonecrosis (osteonecrosis): alleviation of pain in osteonecrosis can be achieved

COc1cccc(C2(O)CCCCC2CN(C)C)c1 (centres unmarked) [Tramadol®, reference compound]
activity-related pain, 100 mm visual analog scale [1, 3]: considerable reduction in pain
resting pain, 100 mm visual analog scale [1, 3]: Almost complete freedom from pain
knee activity score according to Larson (maximum score 100) ([1]; improvement persists 2 months without therapy): pronounced increase
patients with complete degeneration of the bone marrow edema in at least one affected bone ([1]; one month treatment, MRT): 19%

CC#CCC(C)[C@H](O)/C=C/[C@@H]1[C@H]2C/C(=C/CCCC(=O)O)C[C@H]2C[C@H]1O (stereo partly drawn) [oral iloprost, (5-{(1S,5S,6R,7R)-7-hydroxy-6-[(E)-(3R,4RS)-3-hydroxy-4-methyl-oct-1-en-6-inyl]-bicyclo[3.3.0]octane-3-ylidene}pentanoic acid)-β-cyclodextrin clathrate]
pain and articulation [2, 4]: alleviation of pain and the improved articulation could be observed even two months after the end of treatment
pain and articulation [2, 5]: significant improvement of the pain
bone marrow edema [2, 4]: reduced not only the bone marrow edema
structural integrity of the bone, necrotic areas and lesions [2, 4]: restored the structural integrity
bone marrow edema [2, 5]: significant reduction of the bone marrow edema
structural integrity of the bone, necrotic areas and lesions [2, 5]: healing of necroses
